We go through five molecules from patent US20220257603A1, “COMBINATION THERAPY FOR TREATING MTAP-DEFICIENT TUMORS” (Board of Regents, The University of Texas System, priority 2019, published 2022).

The structures appear in SMILES notation.

The subject of series [1] is mouse CD8 T cells. Nature of the series: Cytokine production by activated mouse CD8 T cells. Type of series: cell-based. As for the experimental part:
MTA was added into culture for 72 h.
MTA was added into culture for 72 h. […] Therefore, a triple combination therapy with pemetrexed +A2BR antagonists+anti-PD-L1 (or anti-PD1) can be ultra-effective for MTAP-deficient malignancies through five different mechanisms: (1) direct cytotoxicity (from pemetrexed); (2) decrease of MTA levels (from pemetrexed cytotoxicity) and thus alleviation of inhibition of IFN signaling and T cell function; (3) increases in levels of tumor PD-L1 expression (from pemetrexed); (4) T cell activation by mitigating MTA inhibition (A2BR antagonists); and (5) further T cell activation by inhibiting checkpoint molecule PD-L1 (anti-PD-L1 or anti-PD1).

Series [2] has as its system MTAP-deficient vs. MTAP-wild type human bladder cancer cell lines. The experiment in a line: Apoptosis (sub-G1 population) after pemetrexed in human bladder cancer cell lines. Type of series: cell-based. The settings on record: FIG. 2A. The source says:
(§1) Asterisk represents a patient that died of a car accident and thus was not evaluable.
(§2) Pemetrexed inhibited MTAP-deficient human tumor growth (FIG. 2C) but not MTAP-wild type tumor growth (FIG. 2D) in a xenograft mouse model.

Series [3] has as its system MTAP knockdown human bladder cell lines. The experiment in a line: Apoptosis (sub-G1 population) after MTAP knockdown in human bladder cancer cell lines. Type of series: cell-based. Particulars: FIG. 2B.
Text: as §1, §2

The test system of series [4] is MTAP-deficient human tumor. Nature of the series: Tumor growth in xenograft mouse model, MTAP-deficient tumor. Type of series: in vivo. The settings on record: FIG. 2C.
Text: as §1, §2

Series [5] concerns MTAP-wild type tumor. The experiment in a line: Tumor growth in xenograft mouse model, MTAP-wild type tumor. Type of series: in vivo. The settings on record: FIG. 2D.
Text: as §1, §2

The subject of series [6] is MTAP-knockdown human tumors. Nature of the series: Tumor growth in xenograft mouse model, MTAP-knockdown tumor. The series is classed as in vivo. Particulars: FIG. 2E.
Text: as §1, §2

Series [7] has as its system MTAP-deficient bladder cancer vs MTAP-wild type bladder cancer. The experiment in a line: Response of bladder cancer patients to pemetrexed (RECIST). Type of series: in vivo, human.
Text: as §1, §2

The subject of series [8] is PD-L1. The experiment in a line: PD-L1 expression in MTAP-deficient bladder cancer cell lines after pemetrexed. The series is classed as cell-based. The settings on record: FIG. 4A. The text has this:
(§3) For example, pemetrexed induced PD-L1 in MTAP-deficient bladder cancer cell lines (FIG. 4A). […] Based on this, FIG. 6 provides a proposed phase 2 trial schema for combination treatment with pemetrexed and an anti-PD-L1 therapy (e.g., avelumab).

The subject of series [9] is MB49 tumors. The experiment in a line: Immune cells in MB49 tumors with in vivo pemetrexed treatment. Particulars: FIG. 4B.
Text: as §3

Series [10] concerns PD-L1. Nature of the series: PD-L1 expression in vivo on MB49 tumors. The settings on record: FIG. 4C.
Text: as §3

The subject of series [11] is PD-L1. Nature of the series: PD-L1 expression on tumor cells with anti-folate agents. The settings on record: both in vitro and in vivo. The source says:
Many types of tumors contain homozygous deletion of the methylthioadenosine phosphorylase (MTAP) gene, which encodes an essential enzyme to catalyze methylthioadenosine (MTA) in the salvage pathway for adenosine synthesis.

In series [12] the test system is activated human T cells. Particulars: incubation with MTA; cited from earlier work.

Take `CCCn1c(=O)[nH]c2nc(-c3ccc(S(=O)(=O)N4CCN(c5ccc(Cl)cc5)CC4)cc3)[nH]c2c1=O` [PSB-603]: the “rescue of MTA-induced inhibition on the production of INF-γ” value in [1] (PSB603+MTA, mouse CD8 T cells, FIG. 7A) is listed as “partially rescue”. The “rescue of MTA-induced inhibition on the production of TNF-α” value in series [1] (PSB603+MTA, mouse CD8 T cells, FIG. 7B) is listed as “partially rescue”.

In the case of `Nc1nc2[nH]cc(CCc3ccc(C(=O)N[C@@H](CCC(=O)O)C(=O)O)cc3)c2c(=O)[nH]1` [Pemetrexed], the “potency in inducing apoptosis (sub-G1 population), MTAP-deficient vs. MTAP-wild type” value in series [2] is given as “at least 40 fold”. Further, the “apoptosis with pemetrexed treatment” value in series [3] is “significant apoptosis”. The results for the tumor growth result in series [4], in series [5] and in series [6] were “inhibited”, “not” and “inhibited growth”, respectively. For the same molecule, the “response rate, MTAP-deficient vs MTAP-wild type bladder cancer patients” value in [7] (combined retrospective and prospective data, FIG. 2H) is listed as “higher response rate”; in series [7] (prospective data, FIG. 2G) it was “higher response rate”; in series [7] (retrospective data, FIG. 2F), “higher response rate”. In addition, the PD-L1 expression result in series [8] is on record as “induced PD-L1”. The “CD4/8 T cells in tumors” value in [9] is recorded as “increased”. Further, the MDSCs in tumors entry in series [9] is “decreased”. In [9], the “dendritic cells in tumors” value is “increased”. Further, the macrophages in tumors entry in series [9] is “increased”. Moreover, the “PD-L1 expression in vivo” value in [10] is reported as “induced PD-L1”. Moreover, the “PD-L1 expression on tumor cells” value in series [11] was “induce PD-L1 expression”.

For the molecule `N#Cc1c(N)nc(SCC(N)=O)c(C#N)c1-c1ccc(OCC2CC2)cc1` [Bay60-6385], the “production of INF-γ” value in series [1] (mouse CD8 T cells activated with anti-CD3/anti-CD28, 72 h, FIGS. 5A & 7A) is recorded as “mimic this inhibition”. Besides, the “production of TNF-α” value in [1] (mouse CD8 T cells activated with anti-CD3/anti-CD28, 72 h, FIGS. 5B & 7B) is listed as “mimic this inhibition”.

With `CN(Cc1cnc2nc(N)nc(N)c2n1)c1ccc(C(=O)N[C@@H](CCC(=O)O)C(=O)O)cc1` [methotrexate, Methotrexate], the “PD-L1 expression on tumor cells” value in series [11] is recorded as “induce PD-L1 expression”.

Consider `CSC[C@H]1O[C@@H](n2cnc3c(N)ncnc32)[C@H](O)[C@@H]1O` [MTA, methylthioadenosine], for which, in series [12], the “cytotoxicity to activated human T cells” value is “cytotoxic”.
